The values below come from US4127687A, “Prevention of fouling of marine structures such as boat hulls” (Rohm and Haas Company, priority 1976, dated 1978).

Where only a bound is given, the exact number is not on record here.

In data set [1] the test system is weed. Description: Paint panel / plaque tests against weed (Table 2). Particulars: April to November, 1975. Also on record: key: high performance; medium performance; low performance; poor or unacceptable performance. Type of data set: in vivo, grass-like algal growth common in sea water. The text has this:
(3) PAINT FORMULATION AND TEST PANEL OR PLAQUE TESTS
In order to evaluate the compound under practical conditions, weighed quantities of promising compounds are ground in standard volumes of a selected range of paint media and brushed out on plaques for marine immersion.
The anti-fouling paint formulations used is exemplified by the following: […]
The most preferred specific compounds were utilized in paints including vinyl chloride-vinyl acetate copolymers, chlorinated rubber, acrylic emulsions, and conventional paints with or without rosin to contain 20% by weight of biocide in the wet film and in some cases (Example 144 and Example 145) with concentrations of 5, 10, and 15% based on the wet film. Each of the compounds is also described in the membrane tests noted above. The paints were applied at normal thicknesses to plaques or panels of 10 centimeters by 10 centimeters which were immersed in various positions as described for the raft noted above. The compounds and results, as against weed, in the season April to November, 1975, are as follows: […]

Data set [2] relates to weed. Description: Membrane Diffusion Raft Trials, weed control. It is filed as in vivo, grass-like algal growth common in sea water. Particulars: membrane test, average 15 to 16 weeks of immersion. An excerpt:
(§1) 1). FIELD TESTS: - Membrane Diffusion Raft Trials
(§2) A specially constructed raft provides three types
(§3) a). Waterline Well illuminated, aerated
(§4) b). Flats Poorly illuminated deeper
(§5) A known quantity of the test compound is placed into a cylindrical plastic container whose open end is then covered with a membrane of known porosity; the complete unit is attached to the appropriate raft panel so that the poison can freely diffuse into the free water layer around it. Regular inspections, recording time and quantity of settlement, allow a life history of each membrane trial to be constructed. Each raft panel contains 35 compounds to be evaluated together with 4 standard poisons and 1 non-toxic membrane for control.
(§6) The behavior on the raft can thus be compared with that of the standard poisons and the non-toxic control. At normal loading a membrane over the standard poisons would be free from macro-fouling after six months immersion. Compounds showing selective effects against restricted groups of fouling organisms also show up by membrane testing.
(§7) After the completion of membrane tests the contents of all containers are checked visually for poison loss. An empty container indicates an unacceptably high solubility for long term effectiveness; where the poison loss is low the compound is tested in one of two ways depending on its performance against fouling.
(§8) In the membrane tests, the results of approximately 140 compounds evaluated appear in Table 1. The symbols "0" means no detactable effect, the symbol "+" indicates the compound is active against the given fouling organism, and the symbol "++" means that the compound appears to be effective over at least about a four month period for essentially preventing fouling activity by the given organism. In the Table, "weed" designates a grass-like algal growth common in sea water.
(§9) Membrane Test results are of an average 15 to 16 weeks of immersion,
(§10) ^a 0 = none, + = some, + + = effective.

In the next data set the test system is barnacle. Nature of the data set: Membrane Diffusion Raft Trials, barnacle control. Type of data set: in vivo, barnacles. The settings on record: membrane test, average 15 to 16 weeks of immersion.
Excerpt: as §1, §2, §3, §4, §5, §6, §7, §8, §9, §10
^f The 1975 Spring settlement of barnacles was very meager and the […]

A short description of data set [3]: Amount of toxicant remaining in the test container after membrane diffusion raft tests. It is filed as physicochemical. Also on record: key: 0: empty or trace; +: some; + +: ample. The settings on record: after completion of membrane diffusion raft tests.
Excerpt: as §5, §7
^b Amount of toxicants remaining in the test container after the
completion of the membrane diffusion raft tests: 0 = empty or trace, + =

In a further data set the test system is Enteromorpha spores. Nature of the data set: Laboratory toxicity test (Lab Bioassay) with Enteromorpha spores. Type of data set: in vivo. The settings on record: using Enteromorpha spores. The text has this:
Standard laboratory toxicity tests use Enteromorpha spores (zoospores or gametes) but Ectocarpus spores and barnacle nauplii may also be used. During the spore tests additional information on the control of bacterial and diatom slimes becomes available since these organisms are unavoidably introduced with the spore inoculum.
More detailed laboratory toxicity tests on promising compounds determine LD50 values as percentage saturated solution.
^c Using Enteromorpha spores.

In the case of `Cc1c(Cl)sn(-c2ccc(Cl)cc2)c1=O` [Example 147], in the data set with weed [1], the “Effectiveness in paint CONV (conventional anti-fouling formulation)” value (“Effectiveness in paint CONV” for short) is recorded as “p”, the “Effectiveness in paint CR (chlorinated rubber)” value is “h”, the “Effectiveness in paint CR/R (chlorinated rubber/rosin)” value is listed as “h” and the “Effectiveness in paint EM (acrylic emulsion)” value (from here on “Effectiveness in paint EM”) was “m”. Moreover, in the data set with weed [1], the “Effectiveness in paint V (polyvinyl chloride-acetate)” value was “h” and the “Effectiveness in paint V/R (vinyl/rosin)” value is reported as “h”.

Regarding `CCCCCCn1scc(Br)c1=O` [Example 47], the “Weed Control” value in the data set on weed [2] amounted to 0. Further, the “Barnacle Control” value with barnacle is given as “+ +”. Also, the “Contents at the end of test (amount of toxicants remaining in the test container)” value in data set [3] is listed as “+”. In addition, the “Lab Bioassay LD50” value with Enteromorpha spores was > 1 percentage saturated solution.

Consider `O=c1cc(Cl)sn1-c1ccc(Br)cc1` [Example 35], for which the “Weed Control” value with weed [2] is listed as “+ +”. Further, the “Barnacle Control” value in the data set on barnacle is listed as 0. For the same compound, the “Contents at the end of test (amount of toxicants remaining in the test container)” value in data set [3] is on record as “+ +”. Moreover, the “Lab Bioassay LD50” value with Enteromorpha spores is listed as 0.22 percentage saturated solution.

Turning to `O=c1cc(Cl)sn1-c1ccc(I)cc1` [Example 36], the “Weed Control” value with weed [2] is given as “+ +”. Also, the “Barnacle Control” value with barnacle came to 0. The “Contents at the end of test (amount of toxicants remaining in the test container)” value in data set [3] is on record as “+ +”. Moreover, the “Lab Bioassay LD50” value in the data set with Enteromorpha spores is reported as 0.08 percentage saturated solution.

As for `CCCCCCCCCCCCCCn1sccc1=O` [Example 7], the “Weed Control” value in the data set on weed [2] is 0. Further, in the data set on barnacle, the “Barnacle Control” value is on record as 0. The “Contents at the end of test (amount of toxicants remaining in the test container)” value in data set [3] was “+ +”. For the same compound, the “Lab Bioassay LD50” value in the data set with Enteromorpha spores is given as 0.1 percentage saturated solution.

Take `Cc1c(Cl)sn(-c2ccc(I)cc2)c1=O` [Example 117]: the “Weed Control” value in the data set with weed [2] was “+”. Also, the “Barnacle Control” value in the data set on barnacle is listed as “+ +”. The “Contents at the end of test (amount of toxicants remaining in the test container)” value in data set [3] is “+ +”. Besides, the “Lab Bioassay LD50” value in the data set with Enteromorpha spores was 0.2 percentage saturated solution.

In the case of `Cc1ccccc1-n1sc(Cl)c(C)c1=O` [Example 118], the “Weed Control” value in the data set with weed [2] is “+ +”. The “Barnacle Control” value in the data set with barnacle was found to be 0. For the same compound, the “Contents at the end of test (amount of toxicants remaining in the test container)” value in data set [3] is reported as “+”. The “Lab Bioassay LD50” value with Enteromorpha spores was 0.15 percentage saturated solution.

With `O=c1cc(Cl)sn1-c1ccc(Oc2ccccc2)cc1` [Example 39], in the data set with weed [2], the “Weed Control” value is listed as 0. In addition, the “Barnacle Control” value with barnacle is “+ +”. Further, in data set [3], the “Contents at the end of test (amount of toxicants remaining in the test container)” value is reported as “+ +”. For the same compound, the “Lab Bioassay LD50” value with Enteromorpha spores is on record as 0.6 percentage saturated solution.

Regarding `O=c1c(Cl)c(Cl)sn1Cc1ccccc1` [Example 148], in the data set on weed [1], the “Effectiveness in paint CONV” value is reported as “p”, the “Effectiveness in paint CR (chlorinated rubber)” value is given as “h”, the “Effectiveness in paint CR/R (chlorinated rubber/rosin)” value was “h” and the “Effectiveness in paint EM” value is “p”. Further, in the data set on weed [1], the “Effectiveness in paint V (polyvinyl chloride-acetate)” value is listed as “h” and the “Effectiveness in paint V/R (vinyl/rosin)” value is reported as “h”.

For the compound `CCCCc1ccc(-n2sc(Cl)c(C)c2=O)cc1` [Example 121], the “Weed Control” value with weed [2] is “+ +”. Further, in the data set on barnacle, the “Barnacle Control” value was “+ +”. Besides, the “Lab Bioassay LD50” value in the data set on Enteromorpha spores is 0.13 percentage saturated solution.

Regarding `Cc1c(Cl)sn(-c2ccc(O)cc2)c1=O` [Example 125], the “Weed Control” value with weed [2] was “+ +”. Also, in the data set with barnacle, the “Barnacle Control” value amounted to 0. The “Contents at the end of test (amount of toxicants remaining in the test container)” value in data set [3] is listed as “+ +”. For the same compound, in the data set on Enteromorpha spores, the “Lab Bioassay LD50” value is listed as > 1 percentage saturated solution.

Consider `Cc1c(Cl)sn(-c2ccccc2C(F)(F)F)c1=O` [Example 128], for which, in the data set with weed [2], the “Weed Control” value is on record as “+ +”. Besides, the “Barnacle Control” value in the data set on barnacle was 0. Moreover, the “Contents at the end of test (amount of toxicants remaining in the test container)” value in data set [3] is given as “+”. Besides, the “Lab Bioassay LD50” value with Enteromorpha spores is 0.6 percentage saturated solution.

On to `Cc1ccc(-n2sc(Cl)c(C)c2=O)cc1C` [Example 122], for which the “Weed Control” value with weed [2] is on record as “+ +”. Besides, the “Barnacle Control” value with barnacle is listed as “+ +”. Further, the “Contents at the end of test (amount of toxicants remaining in the test container)” value in data set [3] is on record as “+ +”. Further, the “Lab Bioassay LD50” value in the data set with Enteromorpha spores is 0.01 percentage saturated solution.

Take `CCCCCCCCCCn1scc(Br)c1=O` [Example 49]: in the data set on weed [2], the “Weed Control” value is “+ +”. The “Barnacle Control” value in the data set with barnacle was 0. Besides, the “Contents at the end of test (amount of toxicants remaining in the test container)” value in data set [3] is given as “+”. Moreover, the “Lab Bioassay LD50” value with Enteromorpha spores is given as 0.01 percentage saturated solution.

Consider `CCOC(=O)c1ccc(-n2sc(Cl)c(C)c2=O)cc1` [Example 126], for which, in the data set on weed [2], the “Weed Control” value is “+”. In addition, in the data set with barnacle, the “Barnacle Control” value is listed as “+ +”. The “Contents at the end of test (amount of toxicants remaining in the test container)” value in data set [3] is given as “+ +”. The “Lab Bioassay LD50” value with Enteromorpha spores is 0.13 percentage saturated solution.

Turning to `CCCCCCCCCCCCCCCCCCn1sc(Cl)cc1=O` [Example 26], the “Weed Control” value in the data set on weed [2] turned out to be 0. Further, the “Barnacle Control” value in the data set on barnacle is given as 0. Moreover, the “Contents at the end of test (amount of toxicants remaining in the test container)” value in data set [3] is “+ +”. Besides, the “Lab Bioassay LD50” value in the data set on Enteromorpha spores is 1.0 percentage saturated solution.

On to `O=c1c(Cl)c(Cl)sn1Cc1ccc(Cl)cc1` [Example 149], for which, in the data set with weed [1], the “Effectiveness in paint CONV” value was “h”, the “Effectiveness in paint CR/R (chlorinated rubber/rosin)” value is “h”, the “Effectiveness in paint EM” value is “h” and the “Effectiveness in paint V (polyvinyl chloride-acetate)” value was “l”. In the data set on weed [1], the “Effectiveness in paint V/R (vinyl/rosin)” value is given as “h”.

For `Cc1cccc(-n2sc(Cl)c(C)c2=O)c1` [Example 119], the “Weed Control” value with weed [2] was “+ +”. For the same compound, in the data set with barnacle, the “Barnacle Control” value came to 0. Further, in data set [3], the “Contents at the end of test (amount of toxicants remaining in the test container)” value is on record as “+ +”. Besides, the “Lab Bioassay LD50” value in the data set on Enteromorpha spores is on record as 0.1 percentage saturated solution.

In the case of `O=c1c(Cl)c(Cl)sn1-c1ccccc1` [Example 150], in the data set with weed [1], the “Effectiveness in paint CONV” value is on record as “p”, the “Effectiveness in paint CR (chlorinated rubber)” value is listed as “p”, the “Effectiveness in paint CR/R (chlorinated rubber/rosin)” value is recorded as “h” and the “Effectiveness in paint EM” value is “p”. Also, in the data set with weed [1], the “Effectiveness in paint V (polyvinyl chloride-acetate)” value is “m” and the “Effectiveness in paint V/R (vinyl/rosin)” value was “h”.

Take `O=c1c(Cl)c(Cl)sn1CCc1ccccc1` [Example 146]: in the data set on weed [1], the “Effectiveness in paint CONV” value was “h”, the “Effectiveness in paint CR (chlorinated rubber)” value is listed as “h”, the “Effectiveness in paint CR/R (chlorinated rubber/rosin)” value is given as “h” and the “Effectiveness in paint EM” value is “p”. Further, in the data set with weed [1], the “Effectiveness in paint V (polyvinyl chloride-acetate)” value was “h” and the “Effectiveness in paint V/R (vinyl/rosin)” value is “h”.
